What was measured:
[1] = Polymerization constant Kp of radical initiators in styrene (dilatometer); details: initiator 0.05% by weight for poorly soluble ones, normally 0.2%
Method: (§1) In these examples the reactivities are determined of the radical initiators and polymerization initiators according to the invention and some known radical initiators. The reactivity is indicated with the polymerization constant Kp. The latter is very much dependent on the temperature and occurs in the formula Rp=Kp (M) (I)^1/2 where Rp is the polymerization speed, (M) the concentration of the monomer and (I) the concentration of the radical initiator (see "Die Makromolekulare Chemie" 157 (1972), p.279 ff). In all determinations 50 ml. of the monomer were mixed with the radial initiators listed in the following Table and transferred to a dilatometer. The dilatometer was cooled to -80° C., filled with nitrogen, followed by applying vacuum to it; the last two treatments were repeated three times. Then the dilatometer was placed in a thermostated bath which had been set to the polymerization temperature mentioned in the table below. The concentration values were determined in accordance with the standard dilatometric technique (see "Angewandte Chemie" 59 (1947), p90). From the values obtained the conversion and the Kp-values were successively determined. The Table below gives the values obtained for the compounds are prepared in the Examples I through VII. For comparison also the Kp-values of some known radical initiators, namely, α,α'-bis(methoxycarbo)α,α'-bis(p-methylphenyl)succinonitrile(dl) (IX), dilauroyl peroxide (X), di-t-butyl perpivalate (XI) and tert. butyl peroxypivalate (XII) are listed in the Table.
(§2) Because of the poor solubility of some of the radical initiators prepared in the preceding examples, the determination of the Kp-value was started from 0.05% by weight, whereas normally 0.2% by weight is included in the monomer to be polymerized. The Kp-values of other radical initiators in styrene are listed in the Tables 2 and 3 on page 283 of the aforementioned article in "Die Makromolekulare Chemie".

[2] = Polymerization constant Kp of radical initiators in methylmethacrylate (dilatometer); details: initiator 0.05% by weight for poorly soluble ones, normally 0.2%
Method: as §1, §2

Row | SMILES | Kp-value × 10^4 ([1]; temperature 70 °C) | Kp-value × 10^4 ([1]; temperature 80 °C) | Kp-value × 10^4 ([2]; temperature 50 °C) | Kp-value × 10^4 ([2]; temperature 60 °C) | Kp-value × 10^4 ([1]; temperature 90 °C)
1 | COC(=O)[C@](C#N)(c1ccc(C)cc1)[C@](C#N)(C(=O)OC)c1ccc(C)cc1 (relative stereo) [IX, α,α'-bis(methoxycarbo)α,α'-bis(p-methylphenyl)succinonitrile(dl), reference compound] | 1.3 | 3.4 | – | – | –
2 | CSc1nc(SC)nc(C(C#N)(c2ccc(C)cc2)C(C#N)(c2ccc(C)cc2)c2nc(SC)nc(SC)n2)n1 (stereo not drawn) [Example III, α,α'-bis(p-methylphenyl)α,α'-bis(2,4-dimethylthio-1,3,5-triazine)succinonitrile] | – | – | 2.85 | 5.92 | –
3 | COc1ccc(C(C#N)(c2nc(OC)nc(OC)n2)C(C#N)(c2ccc(OC)cc2)c2nc(OC)nc(OC)n2)cc1 (stereo not drawn) [Example IV, α,α'-bis(p-methoxyphenyl)α,α'-bis(2,4-dimethoxy-1,3,5-triazine)succinonitrile] | – | – | 1.1 | 2.7 | –
4 | CCCCCCCCCCCCCCCCCCOc1nc(OCCCCCCCCCCCCCCCCCC)nc(C(C#N)(c2ccc(C)cc2)C(C#N)(c2ccc(C)cc2)c2nc(OCCCCCCCCCCCCCCCCCC)nc(OCCCCCCCCCCCCCCCCCC)n2)n1 (stereo not drawn) [Example V, α,α'-bis(p-tolyl)α,α'-bis(2,4-distearoxy-1,3,5-triazine)succinonitrile] | 3.05 | 7.86 | 2.32 | 4.48 | –
5 | COc1nc(OC)nc(C(C#N)(c2ccc(C)cc2)C(C#N)(c2ccc(C)cc2)c2nc(OC)nc(OC)n2)n1 (stereo not shown) [I + II] | – | – | 3.85 | 7.5 | –
6 | Cc1ccc(C(C#N)(c2nc(N3CCCCC3)nc(N3CCCCC3)n2)C(C#N)(c2ccc(C)cc2)c2nc(N3CCCCC3)nc(N3CCCCC3)n2)cc1 (stereo not drawn) [VI, α,α'-bis(p-methylphenyl) α,α'-bis (2,4-dipiperidino-1,3,5-triazine)succinonitrile] | – | 1.60 | no polymerization | no polymerization | 3.56
7 | COc1nc(OC)nc(C(C#N)(c2ccc(Cl)cc2)C(C#N)(c2ccc(Cl)cc2)c2nc(OC)nc(OC)n2)n1 (stereo not drawn) [VII, α,α'-bis(p-chorophenyl)α,α'-bis(2,4-dimethoxy-1,3,5-triazine)succinonitrile] | 6.10 | 5.70 | 2.10 | 5.52 | –
8 | CCCCCCCCCCCC(=O)OOC(=O)CCCCCCCCCCC [X, dilauroyl peroxide, reference compound] | 2.4 | 5.8 | – | – | –
9 | CC(C)(C)OOC(=O)C(C)(C)C [XI, di-t-butyl perpivalate, reference compound] | 4.2 | 10.1 | – | – | –
10 | CC(C)(C)OOC(=O)C(C)(C)C [XII, tert. butyl peroxypivalate, reference compound] | – | – | 3.0 | – | –

— US4284769A, “Preparation of triazinyl nitriles” (priority 1975, dated 1981)
